Results as given in ChEMBL document CHEMBL5518164, “Membrane-permeable tenofovir-di- and monophosphate analogues” (Eur J Med Chem, 2024).
Activity calls are given as the source filed them. The calls are words filed in the database; no cut-off is given here.

Assays:
[1] = biological target: DNA polymerase beta (Homo sapiens) (UniProt P06746); test: Substrate activity at human DNA polymerase beta assessed as n+1 band formation incubated for 120 mins in presence of primer/template mixture and dNTPs by primer extension assay based fluorescence analysis
[2] = Half life of the compound in human CEM/0 cell extracts by RP18-HPLC analysis; format: ADME, CCRF-CEM
[3] = biological target: T1, DNA polymerase alpha catalytic subunit (Homo sapiens) (UniProt P09884); test: Substrate activity at human DNA polymerase alpha assessed as n+1 band formation incubated for 60 mins in presence of primer/template mixture and dNTPs by primer extension assay based fluorescence analysis
T1 sequence (whole entry): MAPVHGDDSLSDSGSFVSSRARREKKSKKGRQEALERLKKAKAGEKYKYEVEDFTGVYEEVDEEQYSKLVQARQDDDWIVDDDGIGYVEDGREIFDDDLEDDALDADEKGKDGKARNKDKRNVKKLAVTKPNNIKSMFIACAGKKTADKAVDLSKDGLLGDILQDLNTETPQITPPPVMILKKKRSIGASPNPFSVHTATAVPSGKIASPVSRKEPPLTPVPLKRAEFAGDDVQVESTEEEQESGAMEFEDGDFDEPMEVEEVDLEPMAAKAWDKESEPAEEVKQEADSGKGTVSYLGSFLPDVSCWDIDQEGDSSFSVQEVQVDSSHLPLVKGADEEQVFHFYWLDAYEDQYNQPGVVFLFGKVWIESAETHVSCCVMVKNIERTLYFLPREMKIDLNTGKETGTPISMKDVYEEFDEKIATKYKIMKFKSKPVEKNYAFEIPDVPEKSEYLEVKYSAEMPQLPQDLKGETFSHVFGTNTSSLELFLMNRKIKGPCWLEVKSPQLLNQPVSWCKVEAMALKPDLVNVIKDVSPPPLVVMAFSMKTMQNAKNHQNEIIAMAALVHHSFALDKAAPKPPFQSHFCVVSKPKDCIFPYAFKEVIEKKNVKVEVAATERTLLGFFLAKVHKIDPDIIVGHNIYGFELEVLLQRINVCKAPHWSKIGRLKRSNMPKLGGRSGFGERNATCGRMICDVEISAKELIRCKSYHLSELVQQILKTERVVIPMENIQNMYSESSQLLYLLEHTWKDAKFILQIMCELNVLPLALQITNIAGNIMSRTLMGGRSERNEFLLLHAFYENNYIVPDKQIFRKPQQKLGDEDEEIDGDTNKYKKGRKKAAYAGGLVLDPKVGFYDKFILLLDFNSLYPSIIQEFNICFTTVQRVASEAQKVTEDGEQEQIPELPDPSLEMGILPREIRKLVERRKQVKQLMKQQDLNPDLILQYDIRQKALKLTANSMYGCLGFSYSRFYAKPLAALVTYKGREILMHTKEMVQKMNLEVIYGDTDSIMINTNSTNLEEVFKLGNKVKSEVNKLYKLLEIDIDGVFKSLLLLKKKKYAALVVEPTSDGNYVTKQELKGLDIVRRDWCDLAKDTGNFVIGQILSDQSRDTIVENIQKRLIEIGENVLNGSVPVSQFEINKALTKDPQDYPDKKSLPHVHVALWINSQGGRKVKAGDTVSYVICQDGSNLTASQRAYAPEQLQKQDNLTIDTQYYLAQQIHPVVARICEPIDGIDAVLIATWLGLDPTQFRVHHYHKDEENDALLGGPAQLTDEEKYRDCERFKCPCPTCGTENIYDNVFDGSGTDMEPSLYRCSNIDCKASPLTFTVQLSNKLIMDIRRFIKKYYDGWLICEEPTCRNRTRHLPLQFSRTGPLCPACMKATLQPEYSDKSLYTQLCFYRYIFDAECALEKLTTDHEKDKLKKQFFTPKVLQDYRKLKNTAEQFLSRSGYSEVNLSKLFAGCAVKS

[4] = Drug metabolism in heparin-stabilized human plasma assessed as (R)-9-(2-(phosphonomethoxy)propyl)adenine formation by HPLC analysis; format: ADME, cell-free
[5] = test system: Human immunodeficiency virus; test: Substrate activity at HIV reverse transcriptase assessed as n+1 band formation incubated for 30 mins in presence of primer/template mixture and dNTPs by primer extension assay based fluorescence analysis
[6] = test system: Human immunodeficiency virus 1; test: Antiviral activity against HIV-1 HE infected in wild type human CEM/0 cells assessed as inhibition of virus-induced giant cell formation incubated for 4 to 5 days by light microscopy; format: functional, organism-based; conditions: Human immunodeficiency virus 1, HE, CCRF-CEM
[7] = Cytotoxicity against human CEM cells assessed as inhibition of cell proliferation; format: toxicity, cell-based, CCRF-CEM

SMILES	Activity [1]	half-life [2]	Activity [3]	Drug metabolism [4]	Activity [5]	EC50 [6]	CC50 [7]
CCCCCCCCCCCCCCCCCCOP(=O)(OCCCC)OP(=O)(O)OP(=O)(O)CO[C@H](C)Cn1cnc2c(N)ncnc21 (stereo partly specified)	inactive	> 20 h	inactive	Metabolite_Detected	Active	0.047 µM	44.3 µM
CCCCCCCCCCCCCCCCCCP(=O)(OCCCC)OP(=O)(O)OP(=O)(O)CO[C@H](C)Cn1cnc2c(N)ncnc21 (stereo partly specified)	inactive	> 8 h	inactive	Metabolite_Detected	inactive	0.078 µM	44.6 µM
CCCCCCCCCCCCCCCCCCP(=O)(OCCCC)OP(=O)(O)CO[C@H](C)Cn1cnc2c(N)ncnc21 (stereo partly specified)	inactive	5.1 h	inactive	Metabolite_Detected	inactive	0.035 µM	37.8 µM
